Like-named read-outs stand apart in the source and are kept apart here.
Key:
[1] = system: OGD/R-induced SH-SY5Y cells; test: OGD/R-induced SH-SY5Y cell apoptosis, Annexin V/PI flow cytometry; type: cell-based; settings: OGD 4 h / R 24 h with TJ-5
Method: The oxygen glucose deprivation/reoxygenation (OGD/R)-induced SH-SY5Y cell model was established to mimic CIRI as previously described ([Dong et al., 2021]). Briefly, SH-SY5Y cells were cultured in glucose-free Dulbecco’s Modified Eagle Medium, and the flasks were placed inside an incubator (1% O2, 94% N2, 5% CO2) for 4 h. OGD cells were then incubated in standard culture conditions with or without TJ-5 for 24 h of reperfusion. OGD 4 h/R 24 h SH-SY5Y cells were harvested, and the Annexin V/PI Apoptosis Kit (Multi- Science Biotech, China) was used to detect apoptosis by flow cytometry.

[2] = system: MyD88/NF-κB and ERK signaling pathway; test: Simple Western / RT-qPCR of MyD88/NF-κB and ERK pathway in the brain of CIRI mice; type: in vivo, C57BL/6 mice; settings: TJ-5 15 mg/kg
Method: Total mRNA was extracted from the brain cortex using TRIzol reagent and reverse-transcribed into cDNA using the PrimeScript™ RT reagent kit (Takara, Japan), following the manufacturer’s instructions. RT-qPCR was performed using SYBR Green Real-time PCR Master Mix (Takara, Japan) with the Step One System (Life Technologies). The results were expressed as fold change from the untreated control and analyzed using the 2^−ΔΔCt method. The primers were as follows (5′–3′): MyD88 forward: TTTATCTGCTACTGCCCCAACG, reverse: GCGGCGACACCTTTTCTCA; TLR4 forward: ATGCTGCAACTGATGTTCCTTC, reverse: GATGTTAGACCTTTCTTCCTCCC; GAPDH forward: TGTTCCTACCCCCAATGTGTCC, reverse: GGAGTTGCTGTTGAAGTCGCAG; TNF-α forward: ATGGCCTCCCTCTCATCAGT, reverse: TGGTTTGCTACGACGTGGG; IL-6 forward: AGTGGCTAAGGACCAAGAC, reverse: ATAACGCACTAGGTTTGCCGA; iNOS forward: ATTCACAGCTCATCCGGTACG, reverse: GGATCTTGACCATCAGCTTGC; IL-1β forward: GCACTACAGGCTCCGAGATGAA, reverse: GTCGTTGCTTGGTTCTCCTTGT.
Here, Simple Western, a novel immunoassay to detect proteins in the brain, was used, as previously described ([Kannan et al., 2018]; [Nanki et al., 2018]). Briefly, the prepared proteins were diluted to a concentration of 0.5 mg/ml using a sample preparation kit (Protein Simple, United States). Then, according to the manufacturer’s instructions, the prepared reagents were added to the detection plate sequentially for processing in an automated capillary electrophoresis system (Simple Western system). The primary antibodies recognized HMGB1, TLR4, MyD88, NeuN, P-ERK, P-IκBα, IκBα, NF-κB p65 (CST, 1:50), Histone H3 (ABclonal, 1:50), and GAPDH (ABclonal, 1:1000). Compass for SW software v4.0.0 (Protein Simple, United States) was used to quantitatively analyze the signal intensity (area) of the protein.

[3] = Drug concentration in serum and tissues by LC-MS, pharmacokinetics and BBB permeability; type: in vivo, mice; settings: for concentration in CL brain: contralateral non-ischemic hemisphere; for concentration in CL brain / AUC(0-t) / concentration at 5 min / concentration at 10 min / concentration at 30 min / concentration at 1 h / concentration at 2 h / concentration at 6 h: mean ± SD; for Kp / half-life / AUC(0-t) / concentration at 5 min / concentration at 10 min / concentration at 30 min / concentration at 1 h / concentration at 2 h / concentration at 6 h: C57BL/6, mouse; for Kp / half-life / AUC(0-t): iv; for Kp: mean AUC0–6 h ratio, read-out: Kp (brain-serum ratio, AUCbrain/AUCserum); for half-life: read-out: t1/2 (elimination half-life) (converted); for AUC(0-t): read-out: AUC0–6 h; for concentration at 5 min / concentration at 10 min / concentration at 30 min / concentration at 1 h / concentration at 2 h / concentration at 6 h: intravenous
Method: The mice were intravenously injected with 15 mg/kg TJ-5 at the time of reperfusion 1 h after MCAO or Sham. The mice were then anesthetized at 5 min, 10 min, 30 min, 1 h, and 2 h, or 6 h post-dosing. Blood was collected to prepare serum samples, and the ipsilateral ischemic hemisphere (IL brain), contralateral non-ischemic hemisphere (CL brain), heart, and liver samples were obtained after transcardial perfusion with 0.9% saline. Liquid chromatography-mass spectrometry (LC-MS) was performed to determine the concentration of TJ-5 in the samples. The time-concentration curve, area under the curve (AUC), and pharmacokinetic (PK) parameters of TJ-5 were analyzed using the PKslover 2.0 PK software ([Zhang et al., 2010]). BBB permeability was evaluated using the brain-to-serum partition coefficient (Kp), which was calculated as AUCbrain/AUCserum.

With `O=C(CCN1CCN(Cc2ccccc2)CC1)Nc1nc(-c2ccccc2)cs1` [TJ-5] the “apoptosis of OGD/R-induced SH-SY5Y cells” value [1] was “significantly reduced apoptosis”, the “expression of HMGB1, TLR4, and MyD88 in the ischemic hemisphere” value [2] was “downregulated” and the “phosphorylation of ERK in the ischemic hemisphere” value [2] was “inhibited”. For the same compound, the “phosphorylation of IκBα and nuclear translocation of NF-κB p65 in the ischemic hemisphere” value [2] was “reduced”, the “NeuN protein levels in the brain” value ([2]; I/R-induced decrease) was “attenuated this decrease” and the “concentration in CL brain” value ([3]; 15 mg/kg i.v. at reperfusion 1 h after MCAO, 5 min) was 5877.53 ± 989.32 ng/g. The “concentration in CL brain” value ([3]; 15 mg/kg i.v. at reperfusion 1 h after MCAO, 10 min) was 5364.30 ± 749.83 ng/g, the “concentration in CL brain” value ([3]; 15 mg/kg i.v. at reperfusion 1 h after MCAO, 30 min) was 2480.87 ± 985.41 ng/g and the “concentration in CL brain” value ([3]; 15 mg/kg i.v. at reperfusion 1 h after MCAO, 1 h) was 1662.40 ± 117.03 ng/g. For the same compound, the “concentration in CL brain” value ([3]; 15 mg/kg i.v. at reperfusion 1 h after MCAO, 2 h) was 347.65 ± 55.25 ng/g, the “concentration in CL brain” value ([3]; 15 mg/kg i.v. at reperfusion 1 h after MCAO, 6 h) was 10.43 ± 5.69 ng/g and the BBB permeability ([3]; 15 mg/kg i.v., brain vs serum concentrations) was “good BBB permeability”. It also gave a Kp ([3]; CL brain (contralateral non-ischemic hemisphere) / serum, 15 mg/kg i.v., CL brain) of 5.21, a Kp ([3]; IL brain (ipsilateral ischemic hemisphere) / serum, 15 mg/kg i.v., IL brain) of 5.58 and a Kp ([3]; brain (Sham) / serum, 15 mg/kg i.v., Sham brain) of 4.98. The half-life ([3]; contralateral non-ischemic hemisphere (CL brain), 15 mg/kg i.v., CL brain) was 24.6 min, the AUC(0-t) ([3]; contralateral non-ischemic hemisphere (CL brain), 15 mg/kg i.v., CL brain, tissue density assumed 1 g/ml) was 4790 ± 353 ng·h/mL and the concentration at 5 min ([3]; 15 mg/kg i.v., Sham brain, 5 min, read-out: concentration in Sham brain) was 6230 ± 436 ng/g. For the same compound, the concentration at 10 min ([3]; 15 mg/kg i.v., Sham brain, 10 min, read-out: concentration in Sham brain) was 4900 ± 53.9 ng/g, the concentration at 30 min ([3]; 15 mg/kg i.v., Sham brain, 30 min, read-out: concentration in Sham brain) was 2730 ± 256 ng/g and the concentration at 1 h ([3]; 15 mg/kg i.v., Sham brain, 1 h, read-out: concentration in Sham brain) was 1580 ± 469 ng/g. The concentration at 2 h ([3]; 15 mg/kg i.v., Sham brain, 2 h, read-out: concentration in Sham brain) was 268 ± 6.25 ng/g, the concentration at 6 h ([3]; 15 mg/kg i.v., Sham brain, 6 h, read-out: concentration in Sham brain) was 18.7 ± 11 ng/g and the concentration at 5 min ([3]; 15 mg/kg i.v., heart, 5 min, read-out: concentration in heart) was 5910 ± 825 ng/g. For the same compound, the concentration at 10 min ([3]; 15 mg/kg i.v., heart, 10 min, read-out: concentration in heart) was 4590 ± 352 ng/g, the concentration at 30 min ([3]; 15 mg/kg i.v., heart, 30 min, read-out: concentration in heart) was 4730 ± 2060 ng/g and the concentration at 1 h ([3]; 15 mg/kg i.v., heart, 1 h, read-out: concentration in heart) was 1660 ± 335 ng/g. The concentration at 2 h ([3]; 15 mg/kg i.v., heart, 2 h, read-out: concentration in heart) was 684 ± 199 ng/g, the concentration at 6 h ([3]; 15 mg/kg i.v., heart, 6 h, read-out: concentration in heart) was 51.6 ± 11.9 ng/g and the concentration at 5 min ([3]; 15 mg/kg i.v., liver, 5 min, read-out: concentration in liver) was 7160 ± 594 ng/g. For the same compound, the concentration at 10 min ([3]; 15 mg/kg i.v., liver, 10 min, read-out: concentration in liver) was 5890 ± 528 ng/g, the concentration at 30 min ([3]; 15 mg/kg i.v., liver, 30 min, read-out: concentration in liver) was 4710 ± 1130 ng/g and the concentration at 1 h ([3]; 15 mg/kg i.v., liver, 1 h, read-out: concentration in liver) was 2960 ± 1030 ng/g. For the same compound, the concentration at 2 h ([3]; 15 mg/kg i.v., liver, 2 h, read-out: concentration in liver) was 750 ± 249 ng/g, the concentration at 6 h ([3]; 15 mg/kg i.v., liver, 6 h, read-out: concentration in liver) was 170 ± 36.1 ng/g and the concentration at 5 min ([3]; 15 mg/kg i.v., serum, 5 min, read-out: concentration in serum) was 1190 ± 209 ng/mL. For the same compound, the concentration at 10 min ([3]; 15 mg/kg i.v., serum, 10 min, read-out: concentration in serum) was 980 ± 203 ng/mL, the concentration at 30 min ([3]; 15 mg/kg i.v., serum, 30 min, read-out: concentration in serum) was 472 ± 151 ng/mL and the concentration at 1 h ([3]; 15 mg/kg i.v., serum, 1 h, read-out: concentration in serum) was 285 ± 29.1 ng/mL. It also gave a concentration at 2 h ([3]; 15 mg/kg i.v., serum, 2 h, read-out: concentration in serum) of 79.6 ± 26.9 ng/mL, a concentration at 6 h ([3]; 15 mg/kg i.v., serum, 6 h, read-out: concentration in serum) of 2.08 ± 1.12 ng/mL and a concentration at 5 min ([3]; ipsilateral ischemic hemisphere (IL brain), 15 mg/kg i.v. at reperfusion 1 h after MCAO, ipsilateral ischemic hemisphere, 5 min, read-out: concentration in IL brain) of 6650 ± 591 ng/g. For the same compound, the concentration at 10 min ([3]; ipsilateral ischemic hemisphere (IL brain), 15 mg/kg i.v. at reperfusion 1 h after MCAO, ipsilateral ischemic hemisphere, 10 min, read-out: concentration in IL brain) was 5799 ± 29.8 ng/g, the concentration at 30 min ([3]; ipsilateral ischemic hemisphere (IL brain), 15 mg/kg i.v. at reperfusion 1 h after MCAO, ipsilateral ischemic hemisphere, 30 min, read-out: concentration in IL brain) was 2890 ± 611 ng/g and the concentration at 1 h ([3]; ipsilateral ischemic hemisphere (IL brain), 15 mg/kg i.v. at reperfusion 1 h after MCAO, ipsilateral ischemic hemisphere, 1 h, read-out: concentration in IL brain) was 1750 ± 164 ng/g. For the same compound, the concentration at 2 h ([3]; ipsilateral ischemic hemisphere (IL brain), 15 mg/kg i.v. at reperfusion 1 h after MCAO, ipsilateral ischemic hemisphere, 2 h, read-out: concentration in IL brain) was 327 ± 57.2 ng/g, the concentration at 6 h ([3]; ipsilateral ischemic hemisphere (IL brain), 15 mg/kg i.v. at reperfusion 1 h after MCAO, ipsilateral ischemic hemisphere, 6 h, read-out: concentration in IL brain) was 11.7 ± 6.43 ng/g and the half-life ([3]; ipsilateral ischemic hemisphere (IL brain), 15 mg/kg i.v., IL brain) was 24.6 min. It also gave an AUC(0-t) ([3]; ipsilateral ischemic hemisphere (IL brain), 15 mg/kg i.v., IL brain, tissue density assumed 1 g/ml) of 5140 ± 239 ng·h/mL, a half-life ([3]; 15 mg/kg i.v., Sham brain) of 39 min and an AUC(0-t) ([3]; 15 mg/kg i.v., Sham brain, tissue density assumed 1 g/ml) of 4580 ± 276 ng·h/mL. It also gave a half-life ([3]; 15 mg/kg i.v., heart) of 40.2 min, an AUC(0-t) ([3]; 15 mg/kg i.v., heart, tissue density assumed 1 g/ml) of 6480 ± 769 ng·h/mL and a half-life ([3]; 15 mg/kg i.v., liver) of 42 min. The AUC(0-t) ([3]; 15 mg/kg i.v., liver, tissue density assumed 1 g/ml) was 8240 ± 852 ng·h/mL, the AUC(0-t) ([3]; 15 mg/kg i.v., serum) was 919 ± 82.2 ng·h/mL and the half-life ([3]; 15 mg/kg i.v., serum) was 22.8 min. For the same compound, the “time effective concentration is maintained” value ([3]; single intravenous injection of 15 mg/kg) was “about 6 h”.
